Entries after “also recorded” stand apart in the source; their conditions may differ.
Legend:
[1] = target: T1, Medicago truncatula NFP ectodomain (NFP-ECD, residues 28-246), wild type, SEQ ID NO: 1 (Medicago truncatula, UniProt Q0GXS4); assay: Microscale thermophoresis (MST) binding of NFP to carbohydrate ligands; settings: read-out: Dissociation constant (Kd)
T1 construct: The Medicago truncatula NFP ectodomain (residues 28-246); AcMNPV gp67 signal peptide (replaces native signal peptide 1-27) (N); hexa-histidine tag (C); made in house; host or cells: Sf9 cells (Spodoptera frugiperda), baculovirus
Experimental: Expression and purification of Medicago NFP ectodomain: The Medicago truncatula NFP ectodomain (residues 28-246) was codon-optimized for insect cell expression (Genscript, Piscataway, USA) and cloned into the pOET4 baculovirus transfer vector (Oxford Expression Technologies). The native NFP signal peptide (residues 1-27, predicted by SignalP 4.1) was replaced with the AcMNPV gp67 signal peptide to facilitate secretion and a hexa-histidine tag was added to the C-terminus. Point mutants of NFP were engineered using site-directed mutagenesis. Recombinant baculoviruses were produced in Sf9 cells (Spodoptera frugiperda) using the FlashBac Gold kit (Oxford Expression technologies) according to the manufacturer's instructions with Lipofectin (ThermoFisher Scientific) as a transfection reagent. Protein expression was performed as follows. Suspension-cultured Sf9 cells were maintained with shaking at 299 K in serum-free MAX-XP (BD-Biosciences, discontinued) or HyClone SFX (GE Healthcare) medium supplemented with 1% Pen-Strep (10000 U/ml, Life technologies) and 1% CD lipid concentrate (Gibco). Protein expression was induced by adding recombinant passage 3 virus once the Sf9 cells reached a cell density of 1.0*10^7^6 cells/ml. After 5-7 days of expression, medium supernatant containing NFP ectodomains was harvested by centrifugation. This was followed by an overnight dialysis step against 50 mM Tris-HCl pH 8, 200 mM NaCl at 277 K. The NFP ectodomain was enriched by two subsequent steps of Ni-IMAC purification (HisTrap excel/HisTrap HP, both GE Healthcare). For crystallography experiments, N-glycans were removed using the endoglycosidase PNGase F (1:15 (w/w), room temperature, overnight). As a final purification step, NFP ectodomain was purified by SEC on a Superdex 200 10/300 or HiLoad Superdex 200 16/600 (both GE Healthcare) in phosphate buffered saline at pH 7.2 supplemented to a total of 500 mM NaCl (for binding assays) or 50 mM Tris-HCl, 200 mM NaCl (for crystallography). NFP ectodomain elutes as a single, homogeneous peak corresponding to a monomer. […]

[2] = target: T2, Medicago NFP ectodomain (NFP-ECD, WT) (Medicago truncatula, UniProt Q0GXS4); assay: Biolayer interferometry (BLI) binding of NFP-ECD to immobilized biotinylated ligands; settings: BLI, FIG. 2B, six replicates
T2 construct: The Medicago truncatula NFP ectodomain (residues 28-246) was codon-optimized; AcMNPV gp67 signal peptide (replaces native signal peptide 1-27) (N); made in house; host or cells: Sf9 (Spodoptera frugiperda), baculovirus, secreted into medium
T2 sequence (Q0GXS4 28-246): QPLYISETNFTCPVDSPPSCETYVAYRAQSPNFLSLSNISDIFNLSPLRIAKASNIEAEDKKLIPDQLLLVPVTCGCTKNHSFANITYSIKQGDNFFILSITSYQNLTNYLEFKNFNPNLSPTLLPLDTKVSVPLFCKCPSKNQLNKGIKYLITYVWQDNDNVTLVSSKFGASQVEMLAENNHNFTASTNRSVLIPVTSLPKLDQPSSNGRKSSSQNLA
Experimental: (§1) Expression and purification of Medicago NFP ectodomain: The Medicago truncatula NFP ectodomain (residues 28-246) was codon-optimized for insect cell expression (Genscript, Piscataway, USA) and cloned into the pOET4 baculovirus transfer vector (Oxford Expression Technologies). The native NFP signal peptide (residues 1-27, predicted by SignalP 4.1) was replaced with the AcMNPV gp67 signal peptide to facilitate secretion and a hexa-histidine tag was added to the C-terminus. Point mutants of NFP were engineered using site-directed mutagenesis. Recombinant baculoviruses were produced in Sf9 cells (Spodoptera frugiperda) using the FlashBac Gold kit (Oxford Expression technologies) according to the manufacturer's instructions with Lipofectin (ThermoFisher Scientific) as a transfection reagent. Protein expression was performed as follows. Suspension-cultured Sf9 cells were maintained with shaking at 299 K in serum-free MAX-XP (BD-Biosciences, discontinued) or HyClone SFX (GE Healthcare) medium supplemented with 1% Pen-Strep (10000 U/ml, Life technologies) and 1% CD lipid concentrate (Gibco). Protein expression was induced by adding recombinant passage 3 virus once the Sf9 cells reached a cell density of 1.0*10^7^6 cells/ml. After 5-7 days of expression, medium supernatant containing NFP ectodomains was harvested by centrifugation. This was followed by an overnight dialysis step against 50 mM Tris-HCl pH 8, 200 mM NaCl at 277 K. The NFP ectodomain was enriched by two subsequent steps of Ni-IMAC purification (HisTrap excel/HisTrap HP, both GE Healthcare). For crystallography experiments, N-glycans were removed using the endoglycosidase PNGase F (1:15 (w/w), room temperature, overnight). As a final purification step, NFP ectodomain was purified by SEC on a Superdex 200 10/300 or HiLoad Superdex 200 16/600 (both GE Healthcare) in phosphate buffered saline at pH 7.2 supplemented to a total of 500 mM NaCl (for binding assays) or 50 mM Tris-HCl, 200 mM NaCl (for crystallography). NFP ectodomain elutes as a single, homogeneous peak corresponding to a monomer. Point mutated versions of NFP were expressed and purified following the same protocol.
(§2) Biolayer interferometry (BLI): Binding of NFP and mutated versions of NFP to ligands was measured on an Octet RED 96 system (Pall ForteBio). The ligands used were LCO-IV (from S. meliloti), LCO-V (from S. meliloti), LCO-V (from M. loti), and C06 (from M. loti). S. meliloti LCO consists of a tetrameric/pentameric N-acetylglucosamine backbone that is 0-sulfated on the reducing terminal residue, 0-acetylated on the non-reducing terminal residue, and mono-N-acylated by unsaturated C16 acyl groups. M. loti LCO is a pentameric N-acetylglucosamine with a cis-vaccenic acid and a carbamoyl group at the non-reducing terminal residue together with a 2,4-O-acetylfucose at the reducing terminal residue. Biotinylated ligand conjugates were immobilized on streptavidin biosensors (kinetic quality, Pall ForteBio) at a concentration of 125-250 nM for 5 minutes. The binding assays using the S. meliloti ligands (LCO-IV and LCO-V) were replicated seven times, while the binding assays using the M loti ligands (LCO-V and C06) were replicated six times. Data analysis was performed in GraphPad Prism 6 software (GraphPad Software, Inc.). Equilibrium dissociation constants derived from the steady-state were determined by applying a non-linear regression (one site, specific binding) to the response at equilibrium plotted against the protein concentration. Kinetic parameters were determined by non-linear regression (association followed by dissociation) on the subtracted data.
(§3) Mutated lipochitooligosaccharide (LCO) ligands: S. meliloti LCO consists of a tetrameric/pentameric N-acetylglucosamine backbone that is O-sulfated on the reducing terminal residue, O-acetylated on the non-reducing terminal residue, and mono-N-acylated by unsaturated C16 acyl groups. […]

[3] = target: T1, Medicago truncatula NFP ectodomain (NFP-ECD, residues 28-246), wild type, SEQ ID NO: 1; assay: Biolayer interferometry (BLI) binding of NFP / NFP-ECD to immobilized LCO and CO ligands; settings: BLI, FIG. 2B, six replicates
Experimental: as §1, §2, §3

[4] = target: T3, NFP L147D L154D ectodomain (Medicago truncatula, UniProt Q0GXS4, L147D/L154D); assay: BLI binding of hydrophobic patch mutant NFP-ECD to S. meliloti LCO-IV
T3 construct: The Medicago truncatula NFP ectodomain (residues 28-246) was codon-optimized; AcMNPV gp67 signal peptide (replaces native signal peptide 1-27) (N); made in house; host or cells: Sf9 (Spodoptera frugiperda), baculovirus, secreted into medium
Source text: (§4) Creation of NFP point mutations: The NFP leucine residues L147 and L154 were replaced with aspartate residues. Aspartate is similar in size to leucine, but negatively charged where leucine is hydrophobic. Point mutants of NFP were engineered using site-directed mutagenesis. In particular, a double-mutated NFP was engineered where the leucine residues L147 and L154 were replaced with aspartate residues to create the mutant NFP L147D L154D. Point mutated versions of NFP were expressed and purified as described in Example 1.
(§5) NFP mutant binding assays: The binding assay using NFP wild type (WT) protein was replicated seven times, while the binding assay using the NFP mutant NFP L147D L154D was replicated four times.
Biolayer interferometry (BLI): Binding of NFP WT and NFP L147D/L154D mutant to S. meliloti LCO-IV was measured on an Octet RED 96 system (Pall ForteBio). S. meliloti LCO consists of a tetrameric/pentameric N-acetylglucosamine backbone that is O-sulfated on the reducing terminal residue, 0-acetylated on the non-reducing terminal residue, and mono-N-acylated by unsaturated C16 acyl groups. Biotinylated ligand conjugates were immobilized on streptavidin biosensors (kinetic quality, Pall ForteBio) at a concentration of 125-250 nM for 5 minutes. The binding assays were replicated 7 times for the NFP WT, and 4 times for the NFP L147D/L154D mutant. Data analysis was performed in GraphPad Prism 6 software (GraphPad Software, Inc.). Equilibrium dissociation constants derived from the steady-state were determined by applying a non-linear regression (one site, specific binding) to the response at equilibrium plotted against the protein concentration. Kinetic parameters were determined by non-linear regression (association followed by dissociation) on the subtracted data. Binding ofA. thaliana CERK1 (AtCERK1) to chitopentaose (C05) and chitooctaose (C08) was measured in the same way.

[5] = target: T4, Medicago truncatula NFP ectodomain (NFP-ECD) variant L147D/L154D (parent SEQ ID NO: 1) (Medicago truncatula, UniProt Q0GXS4, L147D/L154D); assay: Biolayer interferometry (BLI) binding of hydrophobic patch mutant NFP L147D/L154D to S. meliloti LCO-IV
T4 construct: The Medicago truncatula NFP ectodomain (residues 28-246); AcMNPV gp67 signal peptide (replaces native signal peptide 1-27) (N); hexa-histidine tag (C); made in house; host or cells: Sf9 cells (Spodoptera frugiperda), baculovirus
Experimental: as §1, §4, §5
Biolayer interferometry (BLI): Binding of NFP WT and NFP L147D/L154D mutant to S. meliloti LCO-IV was measured on an Octet RED 96 system (Pall ForteBio). […] Equilibrium dissociation constants derived from the steady-state were determined by applying a non-linear regression (one site, specific binding) to the response at equilibrium plotted against the protein concentration. Kinetic parameters were determined by non-linear regression (association followed by dissociation) on the subtracted data. […]

T3 sequence (Q0GXS4 28-246 L147D/L154D): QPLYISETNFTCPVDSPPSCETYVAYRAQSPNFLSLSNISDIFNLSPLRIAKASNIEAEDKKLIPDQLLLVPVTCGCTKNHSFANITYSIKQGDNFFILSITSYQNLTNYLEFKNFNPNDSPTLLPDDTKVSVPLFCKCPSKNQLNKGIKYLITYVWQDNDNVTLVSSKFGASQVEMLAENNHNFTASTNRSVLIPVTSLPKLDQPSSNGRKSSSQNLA
T4 sequence (Q0GXS4 28-246 L147D/L154D): as above

## CC(=O)N[C@H]1[C@H](O[C@H]2[C@H](O)[C@@H](NC(C)=O)C(O)O[C@@H]2CO)O[C@H](CO)[C@@H](O[C@@H]2O[C@H](CO)[C@@H](O[C@@H]3O[C@H](CO)[C@@H](O)[C@H](O)[C@H]3NC(C)=O)[C@H](O)[C@H]2NC(C)=O)[C@@H]1O (stereo partly shown) [CO4]
[1]
  Kd: 150 µM

## CC(=O)N[C@H]1[C@H](O[C@H]2[C@H](O)[C@@H](NC(C)=O)[C@H](O[C@H]3[C@H](O)[C@@H](NC(C)=O)C(O)O[C@@H]3CO)O[C@@H]2CO)O[C@H](CO)[C@@H](O[C@@H]2O[C@H](CO)[C@@H](O[C@@H]3O[C@H](CO)[C@@H](O[C@@H]4O[C@H](CO)[C@@H](O)[C@H](O)[C@H]4NC(C)=O)[C@H](O)[C@H]3NC(C)=O)[C@H](O)[C@H]2NC(C)=O)[C@@H]1O (stereo partly shown) [M. loti C06]
[2]
  NFP binding (BLI): not detected; also recorded: does not bind
[3]
  Binding to NFP (in words): neither was NFP binding; also recorded: does not bind

## CCCCCC/C=C\CCCCC/C=C/C(=O)N[C@H]1[C@H](O[C@H]2[C@H](O)[C@@H](NC(C)=O)[C@H](O[C@H]3[C@H](O)[C@@H](NC(C)=O)[C@H](O[C@H]4[C@H](O)[C@@H](NC(C)=O)C(O)O[C@@H]4COS(=O)(=O)O)O[C@@H]3CO)O[C@@H]2CO)O[C@H](COC(C)=O)[C@@H](O)[C@@H]1O (stereo partly shown) [S. meliloti LCO-IV]
[4]; FIG. 4B
  affinity compared to NFP WT: approximately two times lower affinity
  association (Kon) compared to NFP WT: almost unaffected
[4]; FIGS. 16A-16C
  association rate (kon) faster than WT NFP-ECD: 4.5 fold
  dissociation rate (koff) increase compared to WT NFP-ECD: 59 fold
  lower affinity compared to WT NFP-ECD: 13 fold
[5]; FIG. 4B
  Affinity change versus NFP WT (in words): approximately two times lower affinity
  Association (Kon) change versus NFP WT (in words): almost unaffected
  Dissociation (Koff), times faster than NFP WT: approximately 15 times
[5]; FIGS. 16A-16C
  Association rate (kon), fold faster than WT NFP-ECD: 4.5 fold
  Dissociation rate (koff), fold increase compared to WT NFP-ECD: 59 fold
